Values joined by “and” are separate entries in the source; they are usually repeats but may differ in a detail not shown here. Equal values may be shown once. Read-outs that look alike come from different tables or passages of the source.
System: H9 cells
Test: qHTS for survival of dissociated H9 cells (CellTiter-Glo, 24 hours after seeding)
Type: cell-based, human
Text: FIG. 2 schematically illustrates qHTS procedure.
All the screed compounds were received pre-plated at the pre-determined concentrations. […] Curve classification is explained in Huang et al. “Chemical genomics profiling of environmental chemical modulation of human nuclear receptors” Environ. Health. Perspect.

[1] = H9 cell survival normalized to 10 μM Y-27632 (taken to be 100%)
[2] = H9 cell survival, CellTiter-Glo 24 hours after seeding; read-out: AC50 (concentration at 50% efficacy)
[3] = H9 cell survival, normalized to 10 μM Y-27632
[4] = Homo sapiens, H9, 24 h, H9 cell survival normalized to 10 μM Y-27632 (taken to be 100%); read-out: Max (maximum activity value from all tested concentrations)
[5] = Homo sapiens, H9, 24 h, H9 cell survival, CellTiter-Glo 24 hours after seeding; read-out: AC50 (concentration at 50% efficacy)
[6] = Homo sapiens, H9, 24 h, H9 cell survival, normalized to 10 μM Y-27632; read-out: Efficacy (activity range between predicted activities at zero and infinite doses, Hill equation)

Row | Compound | Max (maximum activity value from all tested concentrations) [1] | AC50 [2] | Efficacy (activity range between predicted activities at zero and infinite doses, Hill equation) [3] | other results
1 | CN(C)c1ccc(Nc2nc(N)n(C(=O)c3c(F)cccc3F)n2)cc1 [NCGC00244250] | 58.27% and 40.04% | 6.56 µM and 8.33 µM | 23.7 and 39.3 | –
2 | CC(C)CC(=O)OC1OC=C(CO[C@@H]2O[C@H](CO)[C@@H](O)[C@H](O)[C@H]2O)C2CC(O)C(O)(CO)C12 (stereo partly drawn) [NCGC00347879-02] | 30.87% | – | 0 | –
3 | CC1(CCOC2OC(CO)C(O)C(O)C2O)CCC23OC2(C1)C(O)CC1C(C)(C(=O)O)CCCC13C (stereo not drawn) [NCGC00380931-01] | 24.96% | 11.4 µM | 28 | –
4 | C[C@@H]1O[C@@H](OC2C(O[C@H]3[C@H](O[C@H]4CC[C@@]5(C)C(CC[C@]6(C)C5CC=C5C7CC(C)(C)CC(O)[C@]7(C)CC[C@]56C)C4(C)C)O[C@H](C(=O)O)[C@@H](O)[C@@H]3O)OC(CO)C(O)C2O)[C@H](O)[C@H](O)[C@H]1O (stereo partly drawn) [NCGC00381003-01] | 22.06% | 2.48 µM | 24.5 | –
5 | CC(=O)O[C@H]1C(=O)[C@]2(C)C(O)C[C@H]3OC[C@@]3(OC(C)=O)[C@H]2[C@H](OC(=O)c2ccccc2)[C@]2(O)C[C@H](O)C(C)=C1C2(C)C (stereo partly drawn) [NCGC00384655-01] | 23.91% | 1.74 µM | 29.1 | –
6 | CC1(C)CC[C@]2(C(=O)O[C@@H]3O[C@H](CO[C@@H]4O[C@H](CO)[C@@H](O)[C@H](O)[C@H]4O[C@@H]4O[C@H](CO)[C@H](O)[C@H](O)[C@H]4O)[C@@H](O)[C@H](O[C@@H]4O[C@H](CO)[C@@H](O)[C@H](O)[C@H]4O)[C@H]3O)CC[C@]3(C)C(=CCC4[C@@]5(C)CC[C@H](O[C@@H]6OC[C@@H](O)[C@H](O)[C@H]6O)[C@@](C)(C(=O)O)C5CC[C@]43C)[C@@H]2C1 (stereo partly drawn) [NCGC00384798-01] | 38.81% | – | 0 | –
7 | COc1ccc2c(c1O)OC[C@H]1c3ccc(O)cc3O[C@@H]21 [NCGC00384860-01] | 22.82% | 18.5 µM | 29.1 | –
8 | C=C1CC[C@@H]2[C@@](C)(CO[C@@H]3O[C@H](CO)[C@@H](O)[C@H](O)[C@H]3O)[C@H](O)CC[C@@]2(C)[C@@H]1CC/C(C)=C/CO[C@@H]1O[C@H](CO)[C@@H](O)[C@H](O)[C@H]1O [NCGC00385284-01] | 26.38% | 0.001 µM | −31.2 | –
9 | C[C@@H]1O[C@@H](O[C@H]2[C@H](O[C@H]3[C@H](O[C@H]4CC[C@@]5(C)C(CC[C@]6(C)C5CC=C5[C@@H]7CC(C)(C(=O)O)C[C@@H](O)[C@]7(C)CC[C@]56C)[C@@]4(C)CO)O[C@H](C(=O)O)[C@@H](O)[C@@H]3O)O[C@H](CO)[C@H](O)[C@@H]2O)[C@H](O)[C@H](O)[C@H]1O (stereo partly drawn) [NCGC00385739-01] | 23.02% | 3.13 µM | 24.5 | –
10 | COC(=O)c1cc(Br)cnc1N1CCC(NC2CCCCC2)C(O)C1 (stereo not drawn) [NCGC00386932-01] | 22.59% | 0.004 µM | −26.5 | –
11 | NS(=O)(=O)c1ccc(Nc2nc(OCC3CCCCC3)c3[nH]cnc3n2)cc1 [NU-6102] | 46.11% and 34.8% | – | 57.9 and 43.8 | –
12 | Cl.Cl.Fc1ccccc1CNCc1ccc(-c2ccnc3[nH]ccc23)cc1 [OXA 06 dihydrochloride] | 108.2% | 0.736 µM | 110 | –
13 | CCCCC1C(=O)N(c2ccccc2)N(c2ccc(O)cc2)C1=O (stereo not drawn) [OXYPHENBUTAZONE] | 22.37% | 23.3 µM | 25.7 | –
14 | CNS(=O)(=O)C[C@H]1CC[C@H](N(C)c2ncnc3[nH]ccc23)CC1 [Oclacitinib (PF-03394197), Oclacitinib] | – | – | – | Emax [4]: 93.8%; AC50 [5]: 20.8 µM; Emax [6]: 99.9%
15 | CC1(C)CC[C@]2(C(=O)O)CC[C@]3(C)C(=CC[C@@H]4[C@@]5(C)CC[C@H](O)C(C)(C)[C@@H]5CC[C@]43C)[C@@H]2C1 [Oleanolic acid] | – | – | – | Emax [4]: 20.3%; AC50 [5]: 0.37 µM; Emax [6]: -10.7%
16 | C[C@@H]1CCN(C(=O)N2CCCC2)C[C@@H]1N(C)c1ncnc2[nH]ccc12 [PF-956980] | 47.75% | 23.3 µM | 53 | –
17 | N#Cc1cccc(-c2c[nH]c3ncnc(N4CCOCC4)c23)c1 [PF-06447475] | 42.8% | 16.5 µM | 44.6 | –
18 | COc1ccccc1-c1c[nH]c2ncc(-c3cncc(C(=O)N(C)C)c3)cc12 [PPY A] | 37.42% | 2.93 µM | 41.9 | –

Row | Compound | Max (maximum activity value from all tested concentrations) [1] | AC50 [2] | Efficacy (activity range between predicted activities at zero and infinite doses, Hill equation) [3] | other results
19 | CCCCCCCCCCCCCC(=O)O[C@@H]1[C@@H](C)[C@@]2(O)[C@@H](C=C(CO)C[C@]3(O)C(=O)C(C)=C[C@@H]23)[C@@H]2C(C)(C)[C@]12OC(C)=O [Phorbol 12-myristate 13-acetate] | 48.49% | 0.21 µM | 36.8 | –
20 | CC(N/C(=N\C#N)Nc1ccncc1)C(C)(C)C (stereo not drawn) [Pinacidil] | – | – | – | AC50 [5]: 21.1 µM; Emax (Homo sapiens, H9, 24 h, read-out: Efficacy (activity range between predicted activities at zero and infinite doses, Hill equation)): 86.4%; Emax (Homo sapiens, H9, 24 h, read-out: Max (maximum activity value from all tested concentrations)): 83.1%
21 | CC(C)(C)c1nc2c3cc[nH]c(=O)c3c3cc(F)ccc3c2[nH]1 [Pyridone 6] | 28.9% | – | 0 | –
22 | O=S(=O)(NCC1CC1)c1ccc(Nc2nccc(N3CCCc4cc(O)ccc43)n2)cc1 [Pyrintegrin] | 27.85% | 3.29 µM | 31 | –
23 | O=C(NCc1cccc(O)c1)Nc1nc(-c2ccncc2)cs1 [RKI-1447] | 103.2% | 0.083 µM | 106 | –
24 | Cc1cc(Nc2cc(NC(=O)c3c(Cl)cccc3Cl)ccn2)nc(N)n1 [RO495] | 89.28% | 4.69 µM | 73.1 | –
25 | O=C(Nc1ccc2[nH]ncc2c1)C1CCC1 [Rhodblock 6] | 61.61% | 23.3 µM | 67.9 | –
26 | N#CC[C@H](C1CCCC1)n1cc(-c2ncnc3[nH]ccc23)cn1 [Ruxolitinib, Freebase, Ruxolitinib] | 87.05% | – | 48 | AC50 [5]: 10.4 µM
27 | N#CC[C@H](C1CCCC1)n1cc(-c2ncnc3[nH]ccc23)cn1 [Ruxolitinib] | – | 8.26 µM and 11.8 µM | – | –
28 | Cl.O=c1[nH]ccc2cc(OC3CCNCC3)ccc12 [SAR407899 (hydrochloride)] | 116.3% | 2.93 µM | 112 | –
29 | C[S+]([O-])c1ccc(-c2nc(-c3ccncc3)c(-c3ccc(F)cc3)[nH]2)cc1 (stereo not drawn) [SB-203580] | – | – | – | Emax (Homo sapiens, H9, 24 h; read-out: Efficacy (activity range between predicted activities at zero and infinite doses, Hill equation)): 37.4%; Emax (Homo sapiens, H9, 24 h; read-out: Max (maximum activity value from all tested concentrations)): 35.6%; AC50 (Homo sapiens; H9 cell survival, CellTiter-Glo 24 hours after seeding; read-out: AC50 (concentration at 50% efficacy)): 15.2 µM
30 | CCn1c(-c2nonc2N)nc2cncc(CNC3CCNCC3)c21 [SB-747651-A] | 78.33% and 111.1% | – | 35.5 and 68.7 | –
31 | CN(C)CCOc1cc(-c2cn[nH]c2)ccc1NC(=O)C1COc2ccccc2O1 (stereo not drawn) [SR-3677] | – | 0.662 µM | – | Emax [4]: 122%; AC50 [5]: 0.585 µM; Emax [6]: 118%
32 | O=S(=O)(N=Cc1c(O)ccc2ccccc12)c1cccs1 [STF-083010] | 66.46% | 26.4 µM | 82.4 | –
33 | Cc1cc2c(cc1CC(=O)c1sccc1S(=O)(=O)[N-]c1onc(C)c1Cl)OCO2.[Na+] [Sitaxenian sodium] | 21.69% | 26.1 µM | 27.1 | –
34 | CN1CCN(c2nc(C3=C(c4c[nH]c5ccccc45)C(=O)NC3=O)c3ccccc3n2)CC1 [Sotrastaurin] | – | – | – | Emax [4]: 35.9%; AC50 [5]: 16.6 µM; Emax [6]: 36.5%
35 | Brc1c(Br)c(Br)c2n[nH]nc2c1Br [TBB] | 28.55% | 32.6 µM | 33.7 | –
36 | O=C(O)Cc1cc(I)c(Oc2cc(I)c(O)c(I)c2)c(I)c1 [TETRAC] | – | – | – | Emax [4]: 34.2%; AC50 [5]: 14.7 µM; Emax [6]: 35.8%

Reference: US20210348119A1, “COMPOSITIONS AND METHODS FOR CELL CULTURE” (The United States of America as Represented By The …, priority 2018, published 2021)
